Measurements reported in patent US7875647B2, “Heteroaryl-pyrazole derivatives as cannabinoid CB1 receptor antagonists” (Green Cross Corporation, priority 2006, dated 2011).

Target: T1, Cannabinoid-1 receptor (CB1R) (Rattus norvegicus, UniProt P20272)
T1 construct: The tissue obtained from the brain of SD rats was homogenized; from tissue; host or cells: brain of SD rats (membrane pellet of the homogenate)
Assay: Cannabinoid-1 receptor (CB1R) binding affinity assay ([3H]CP-55940, rat CB-1 receptor binding protocol)
Details: IC50(nM), brain tissue of SD rats, [3H]CP-55940, 30° C. 60 min

T1 sequence (P20272 whole entry): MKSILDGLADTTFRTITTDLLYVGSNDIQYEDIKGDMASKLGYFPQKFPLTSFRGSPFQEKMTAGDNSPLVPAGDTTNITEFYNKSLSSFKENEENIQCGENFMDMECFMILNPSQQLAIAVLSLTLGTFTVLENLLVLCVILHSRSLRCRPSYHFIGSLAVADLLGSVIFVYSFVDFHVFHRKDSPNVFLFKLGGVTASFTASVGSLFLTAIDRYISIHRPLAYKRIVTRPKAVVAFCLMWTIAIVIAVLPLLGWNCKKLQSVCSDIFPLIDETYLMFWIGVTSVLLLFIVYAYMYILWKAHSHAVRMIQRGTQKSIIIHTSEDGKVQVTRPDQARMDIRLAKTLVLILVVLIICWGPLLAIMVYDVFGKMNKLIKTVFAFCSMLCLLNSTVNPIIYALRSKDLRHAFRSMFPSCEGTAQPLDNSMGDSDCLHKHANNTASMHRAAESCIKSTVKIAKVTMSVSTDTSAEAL

SMILES | IC50
CCc1c(-c2nnc(C3(c4cccc(Cl)c4)CC3)o2)nn(-c2ccc(Cl)cc2Cl)c1-c1ccc(Br)cc1 [Example 273, 2-(5-(4-bromophenyl)-1-(2,4-dichlorophenyl)-4-ethyl-1H-pyrazol-3-yl)-5-(1-(3-chlorophenyl)cyclopropyl)-1,3,4-oxadiazole] | 2.32 nM
CCCCCOC(C)(C)c1nnc(-c2nn(-c3ccc(Cl)cc3Cl)c(-c3ccc(Cl)cc3)c2C)o1 [Example 244, 2-(5-(4-chlorophenyl)-1-(2,4-dichlorophenyl)-4-methyl-1H-pyrazol-3-yl)-5-(2-(pentyloxy)propan-2-yl)-1,3,4-oxadiazole] | 15.1 nM
CCOC(C)(C)c1nnc(-c2nn(-c3ccc(Cl)cc3Cl)c(-c3ccc(Cl)cc3)c2C)o1 [Example 116, 2-(5-(4-chlorophenyl)-1-(2,4-dichlorophenyl)-4-methyl-1H-pyrazol-3-yl)-5-(2-ethoxypropan-2-yl)-1,3,4-oxadiazole] | 23.9 nM
CCCCC(C)c1nnc(-c2nn(-c3ccc(Cl)cc3Cl)c(-c3ccc(Br)cc3)c2C)s1 (stereo not drawn) [Example 380, 2-(5-(4-Bromophenyl)-1-(2,4-dichlorophenyl)-4-methyl-1H-pyrazol-3-yl)-5-(hexan-2-yl)-1,3,4-thiadiazole] | 11.5 nM

Same assay, conditions: brain tissue of SD rats, [3H]CP-55940, 30° C. 60 min; read-out: IC50

IC50 | SMILES
15.4 nM | CC#Cc1c(-c2nnc(C(C)(C)C)o2)nn(-c2ccc(Cl)cc2Cl)c1-c1ccc(Cl)cc1 [Example 261, 2-tert-butyl-5-(5-(4-chlorophenyl)-1-(2,4-dichlorophenyl)-4-(prop-1-ynyl)-1H-pyrazol-3-yl)-1,3,4-oxadiazole]
70.3 nM | Clc1ccc(-c2c(Br)c(-c3nnc(C4CCC4)s3)nn2-c2ccc(Cl)cc2Cl)cc1 [Example 543, 2-(4-bromo-5-(4-chlorophenyl)-1-(2,4-dichlorophenyl)-1H-pyrazol-3-yl)-5-cyclobutyl-1,3,4-thiadiazole]
11 nM | CCc1c(-c2nnc(C3(C)CC3)o2)nn(-c2ccc(Cl)cc2Cl)c1-c1ccc(Cl)cc1 [Example 283, 2-(5-(4-chlorophenyl)-1-(2,4-dichlorophenyl)-4-ethyl-1H-pyrazol-3-yl)-5-(1-methylcyclopropyl)-1,3,4-oxadiazole]
36.5 nM | Cc1c(-c2nnc(C3(C(F)(F)F)CC3)s2)nn(-c2ccc(Cl)cc2Cl)c1-c1ccc(Cl)cc1 [Example 462, 2-(5-(4-chlorophenyl)-1-(2,4-dichlorophenyl)-4-methyl-1H-pyrazol-3-yl)-5-(1-(trifluoromethyl)cyclopropyl)-1,3,4-thiadiazole]
150 nM | Clc1ccc(-c2c(Cl)c(-c3nnc(C4CCC4)o3)nn2-c2ccc(Cl)cc2Cl)cc1 [Example 333, 2-(4-chloro-5-(4-chlorophenyl)-1-(2,4-dichlorophenyl)-1H-pyrazol-3-yl)-5-cyclobutyl-1,3,4-oxadiazole]
35.7 nM | Cc1c(-c2nnc(CC3CCCC3)o2)nn(-c2ccc(Cl)cc2Cl)c1-c1ccc(Cl)cc1 [Example 22, 2-(5-(4-Chlorophenyl)-1-(2,4-dichlorophenyl)-4-methyl-1H-pyrazol-3-yl)-5-(cyclopentylmethyl)-1,3,4-oxadiazole]
550 nM | Cc1c(-c2nnc(C3(c4ccc(Cl)cc4)CC3)o2)nn(-c2ccc(Cl)cc2)c1-c1ccc(Cl)cc1 [Example 119, 2-(1,5-Bis(4-chlorophenyl)-4-methyl-1H-pyrazol-3-yl)-5-(1-(4-chlorophenyl)cyclopropyl)-1,3,4-oxadiazole]
292 nM | CCC(C)c1nnc(-c2nn(-c3ccc(Cl)cc3)c(-c3ccc(Cl)cc3)c2C)s1 (stereo not drawn) [Example 444, 2-(1,5-bis(4-chlorophenyl)-4-methyl-1H-pyrazol-3-yl)-5-sec-butyl-1,3,4-thiadiazole]
9.01 nM | COC(=O)NC(C)c1c(-c2nnc(C(C)(C)C)o2)nn(-c2ccc(Cl)cc2Cl)c1-c1ccc(Br)cc1 (stereo not drawn) [Example 230, Methyl 1-(5-(4-bromophenyl)-3-(5-tert-butyl-1,3,4-oxadiazol-2-yl)-1-(2,4-dichlorophenyl)-1H-pyrazol-4-yl)ethylcarbamate]
12.7 nM | Cc1c(-c2nnc(C3CC4CCC3C4)o2)nn(-c2ccc(Cl)cc2Cl)c1-c1ccc(Cl)cc1 (stereo not drawn) [Example 52, 2-(bicyclo[2.2.1]heptan-2-yl)-5-(5-(4-chlorophenyl)-1-(2,4-dichlorophenyl)-4-methyl-1H-pyrazol-3-yl)-1,3,4-oxadiazole]
2.49 nM | Clc1ccc(-c2c(Cn3cncn3)c(-c3nnc(C4(c5ccc(Cl)cc5)CC4)s3)nn2-c2ccc(Cl)cc2Cl)cc1 [Example 506, 2-(4-((1H-1,2,4-triazol-1-yl)methyl)-5-(4-chlorophenyl)-1-(2,4-dichlorophenyl)-1H-pyrazol-3-yl)-5-(1-(4-chlorophenyl)cyclopropyl)-1,3,4-thiadiazole]
18.7 nM | CCc1c(-c2nnc(C3CCCC3)s2)nn(-c2ccc(Cl)cc2Cl)c1-c1ccc(Br)cc1 [Example 376, 2-(5-(4-Bromophenyl)-1-(2,4-dichlorophenyl)-4-ethyl-1H-pyrazol-3-yl)-5-cyclopentyl-1,3,4-thiadiazole]
465 nM | CCC(C)c1nnc(-c2nn(-c3ccc(Cl)cc3)c(-c3ccc(Br)cc3)c2C)s1 (stereo not drawn) [Example 418, 2-(5-(4-bromophenyl)-1-(4-chlorophenyl)-4-methyl-1H-pyrazol-3-yl)-5-sec-butyl-1,3,4-thiadiazole]
8.72 nM | CCc1c(-c2nnc(C3(c4cccc(Cl)c4)CC3)o2)nn(-c2ccc(Cl)cc2Cl)c1-c1ccc(Cl)cc1 [Example 258, 2-(5-(4-chlorophenyl)-1-(2,4-dichlorophenyl)-4-ethyl-1H-pyrazol-3-yl)-5-(1-(3-chlorophenyl)cyclopropyl)-1,3,4-oxadiazole]
27.1 nM | CCc1c(-c2nnc(C(C)C)s2)nn(-c2ccc(Cl)cc2Cl)c1-c1ccc(Br)cc1 [Example 453, 2-(5-(4-bromophenyl)-1-(2,4-dichlorophenyl)-4-ethyl-1H-pyrazol-3-yl)-5-isopropyl-1,3,4-thiadiazole]
22.2 nM | Cc1c(-c2nnc(C(C)C3CCCC3)o2)nn(-c2ccc(Cl)cc2Cl)c1-c1ccc(Cl)cc1 (stereo not drawn) [Example 61, 2-(5-(4-chlorophenyl)-1-(2,4-dichlorophenyl)-4-methyl-1H-pyrazol-3-yl)-5-(1-cyclopentylethyl)-1,3,4-oxadiazole]
11.2 nM | Cc1c(-c2nnc(C(C)(C)C)s2)nn(-c2ccccc2Cl)c1-c1ccc(Br)cc1 [Example 425, 2-(5-(4-bromophenyl)-1-(2-chlorophenyl)-4-methyl-1H-pyrazol-3-yl)-5-tert-butyl-1,3,4-thiadiazole]
6.97 nM | CCc1c(-c2nnc(C3(c4ccc(Cl)cc4Cl)CC3)o2)nn(-c2ccc(Cl)cc2Cl)c1-c1ccc(Br)cc1 [Example 174, 2-(5-(4-bromophenyl)-1-(2,4-dichlorophenyl)-4-ethyl-1H-pyrazol-3-yl)-5-(1-(2,4-dichlorophenyl)cyclopropyl)-1,3,4-oxadiazole]
112 nM | Cc1c(-c2nnc(-c3ccco3)o2)nn(-c2ccc(Cl)cc2Cl)c1-c1ccc(Cl)cc1 [Example 8, 2-(5-(4-chlorophenyl)-1-(2,4-dichlorophenyl)-4-methyl-1H-pyrazol-3-yl)-5-(furan-2-yl)-1,3,4-oxadiazole]

SMILES | IC50
CC(C)(C)c1nnc(-c2nn(-c3ccc(Cl)cc3Cl)c(-c3ccc(Cl)cc3)c2Cn2cncn2)o1 [Example 296, 2-(4-((1H-1,2,4-triazol-1-yl)methyl)-5-(4-chlorophenyl)-1-(2,4-dichlorophenyl)-1H-pyrazol-3-yl)-5-tert-butyl-1,3,4-oxadiazole] | 2.36 nM
